Data: patent US11478551B2, “Long-acting adrenomedullin derivative” (University of Miyazaki, priority 2015, dated 2022)

How the values were obtained:
Assay type in all cases: in vivo
[1] = test system: adjuvant-induced arthritis models; assay: Adjuvant-induced arthritis model; settings: 1 and 10 nmol/kg subcutaneous, rat
Protocol: The compound (8) was subcutaneously administered to each rat. […] Physiological saline was administered as a vehicle to a control group. The paw volumes and swelling rates of the right and left legs were measured on days 0 (day before the adjuvant administration), 4, 7, 10 and 14 using a paw volume measurement apparatus (MK-550, Muromachi Kikai Co., Ltd.). Inflammation scores on days 0 (day before the adjuvant administration), 4, 7, 10 and 14 were evaluated on the basis of the scores shown in Table 5.

[2] = test system: TNBS-induced colitis models; assay: 2,4,6-trinitrobenzenesulfonic acid (TNBS)-induced colitis model; settings: 1 nmol/kg subcutaneous, rat
Protocol: 7-week-old male Wistar rats were acclimatized for 1 week. […] Fasting was carried out for 24 hours concurrently with the subcutaneous administration to remove stool from the body. Colitis models were prepared by procedures described below. The concentration of TNBS (Nacalai Tesque, Inc.) was adjusted to 30 mg/500 μL (in a 50% aqueous ethanol solution). 50 mg of pentobarbital was intraperitoneally administered, and a polyethylene catheter was inserted by 8 cm from the anus under anesthesia while slowly rotated, followed by injection of 500 μL of the drug solution (day 1). Then, the inverted state was maintained for 2 minutes. The body weight and the form of diarrhea were evaluated every day. 14 days later, 50 mg of pentobarbital was intraperitoneally administered, and blood collection from the heart and excision of the large intestine were carried out under anesthesia. The length and weight of the excised intestinal tract were measured and compared between the groups. […] In the diagram, (a) depicts the day on which the compound (8) or physiological saline was subcutaneously administered and fasting was started, and (b) depicts the day on which TNBS was administered.

[3] = test system: vascular occlusion model rats; assay: Vascular occlusion model, Morris water maze test; settings: 1 and 10 nmol/kg subcutaneous, rat
Protocol: Physiological saline was administered as a vehicle to a control group. Then, the bilateral vertebral arteries were permanently occluded under anesthesia. On the next day, the bilateral common carotid arteries were occluded for 30 minutes under anesthesia using a suture thread. Then, the suture thread was removed, and blood flow was restarted. The date of the bilateral common carotid artery occlusion was defined as the date of the vascular occlusion model preparation, i.e., day 0. 9 days after the model preparation, the rat was caused to swim in the Morris water maze in one trial (training). The hidden platform test was conducted at intervals of 4 trials/day for 5 days from 10 days after the model preparation. On the fifth day of the hidden platform test (14 days after the model preparation), the probe test was conducted 1 hour after the final trial.
The Morris water maze test was conducted using an experimental apparatus described below. A round pool having a diameter of 150 cm, a height of 45 cm, and a water depth of 30 cm was provided. A clear colorless platform having a diameter of 12 cm was positioned approximately 1 cm below the water surface in the round pool. The water temperature of the round pool was set to 23±1° C. Indirect lighting was disposed within the room having the experimental apparatus placed therein, and visual cues (calendar, ball, cube and striped sheet) for the animals were arranged therein. In the test period, this arrangement was always constant. A video tracking system (Smart, Panlab, S.L.U.) was used in measurement.
The hidden platform test was conducted by procedures described below. […] The swimming time to arrive at the platform from the start (escape latency) was measured. […]
The probe test was conducted by procedures described below. […], the swimming time in a zone having the platform placed therein was measured. The stay rate (%) was calculated according to an expression given below using the measured swimming time. […]

[4] = test system: spontaneously hypertensive rat (SHR); assay: Effect of suppressing increase in blood pressure in spontaneously hypertensive rat (SHR) fed high-salt diet; settings: 336 μg/100 μL subcutaneous single dose, SHR on high-salt diet (8% NaCl), 9 days after administration
Protocol: Each 8-week-old male SHR (approximately 200 g) was fed with a high-salt diet (8% NaCl). The compound (8) was administered in a form dissolved in physiological saline at the time of feeding with the high-salt diet. 100 μL of physiological saline was subcutaneously administered in a single dose to each male SHR (approximately 200 g) in the same condition as above in a control group.

[5] = test system: DSS-induced colitis models; assay: Dextran sodium sulfate (DSS)-induced colitis model; settings: mouse
Protocol: The compound (8) was subcutaneously administered to the back of each mouse. On the day following the administration (day 0), colitis model preparation was started by administration of 3% DSS as drinking water for 7 days. […] Physiological saline was administered as a vehicle to a control group. The body weight and the form of stool were evaluated on days 3, 5 and 7 counted from the start date of the DSS administration (day 0) on the basis of the scores shown in Table 4.

Wistar rat = assay: Blood pressure-lowering effect, single intravenous dose in rat under anesthesia; settings: 1 nmol/kg, single dose into the vein
Protocol: Each compound prepared in experiments I-1 and II-1 or full-length AM was administered in a single dose of 1 nmol/kg into the vein of each rat under anesthesia, and change in the blood pressure of the rat was observed. Each 11 to 14-week-old male Wistar rat was anesthetized by the inhalation of isoflurane. After tracheotomy, inhalational anesthesia was controlled at an isoflurane concentration of 1.5 to 2.5% and a flow rate of 0.6 to 0.8 L/min. The right jugular vein was isolated from the rat, and a catheter tube corresponding to 26 G was inserted thereto. Next, the left carotid artery was isolated from the rat thus treated, and a catheter tube corresponding to 23 G was inserted thereto. From the catheter tube of the right jugular vein, a physiological saline-heparin solution (physiological saline: 100 mL; heparin: 1000 units) was infused at 2.4 mL/hr. […] The catheter inserted in the carotid artery was connected to a pressure transducer. […] In the diagram, the ordinate depicts a difference obtained by subtracting the average blood pressure before the administration of each drug from the average blood pressure at the time of the administration of each drug.

Substance: GL-2-branched CH3O-PEG (60k)-CH2-^αNH-(h.AM (1-52)) [Compound (8)]
- arthritis score (inflammation score) as compared to the vehicle control group [1]: significantly decreased
- paw volume as compared to the vehicle control group [1]: significantly decreased
- swelling rate as compared to the vehicle control group [1]: significantly decreased
- pathological changes of the large intestine (autopsy report) [2]: evidently fewer
- weight loss due to the development of colitis [2]: improved
- decrease in the intestinal tract length of the large intestine compared to the vehicle control group ([2]; 14 days later): evidently suppressed
- increase in the weight of the large intestine compared to the vehicle control group ([2]; 14 days later): evidently suppressed
- death rate associated with the operation for the bilateral common carotid artery occlusion [3]: no significant difference
- escape latency in the hidden platform test as compared to the vehicle control group [3]: shortened
- stay rate in the probe test as compared to the vehicle control group [3]: significantly increased
- increase in the blood pressure compared to the control group [4]: suppressed
- wet weight of the intestinal tract as compared to the vehicle control group ([5]; 5 nmol/kg subcutaneous): tendency to decrease
- length of the intestinal tract as compared to the vehicle control group ([5]; 25 nmol/kg subcutaneous): tendency to increase
- total score (weight loss, stool consistency, bleeding/mucous and bloody stool) ([5]; 5 and 25 nmol/kg subcutaneous, 3% DSS): significant decrease
- decrease in the blood pressure immediately after the administration, as compared to compound (2) (Wistar rat): further suppressed
- rapidly decreased blood pressure immediately after the administration (Wistar rat): not observed
